Experiment: Evaluated for its ability to block the adherence of JY-8 cells to immobilized ICAM-1.

IC50 [nM] | Compound
700 | O=C(/C=C/c1ccc(Sc2ccc(Cl)cc2Cl)c(Cl)c1)NCCCN1CCCC1=O [3-[3-Chloro-4-(2,4-dichloro-phenylsulfanyl)-phenyl]-N-[3-(2-oxo-pyrrolidin-1-yl)-propyl]-acrylamide]

Experiment: as above
Remark: another data set of the same source

IC50 [nM] | Compound
63 | CC(=O)N1CCN(C(=O)/C=C/c2ccc(Sc3ccc(Cl)cc3Cl)c([N+](=O)[O-])c2)CC1 [1-(4-Acetyl-piperazin-1-yl)-3-[4-(2,4-dichloro-phenylsulfanyl)-3-nitro-phenyl]-propenone]
2100 | O=C(/C=C/c1ccccc1Sc1ccc(Cl)cc1Cl)NCCCCCCO [3-[2-(2,4-Dichloro-phenylsulfanyl)-phenyl]-N-(6-hydroxy-hexyl)-acrylamide]
100 | CCc1ccccc1Sc1ccc(/C=C/C(=O)N2CCN(C(C)=O)CC2)cc1[N+](=O)[O-] [1-(4-Acetyl-piperazin-1-yl)-3-[4-(2-ethyl-phenylsulfanyl)-3-nitro-phenyl]-propenone]

Further lines, the compound ahead of its results:

Compound | IC50 [nM]
O=C(/C=C/c1ccc(Sc2ccccc2/C=C/C(=O)N2CCOCC2)c(Cl)c1)N1CCOCC1 [3-{3-Chloro-4-[2-(3-morpholin-4-yl-3-oxo-propenyl)-phenylsulfanyl]-phenyl}-1-morpholin-4-yl-propenone] | 190
O=C(/C=C/c1ccccc1Sc1ccc(Cl)cc1Cl)N1CCOCC1 [3-[2-(2,4-Dichloro-phenylsulfanyl)-phenyl]-1-morpholin-4-yl-propenone] | 5300
O=C(/C=C/c1ccc(Sc2ccc(Cl)cc2Cl)c([N+](=O)[O-])c1)NCCCN1CCCC1=O [3-[4-(2,4-Dichloro-phenylsulfanyl)-3-nitro-phenyl]-N-[3-(2-oxo-pyrrolidin-1-yl)-propyl]-acrylamide] | 140
O=C(/C=C/c1ccc(Sc2ccccc2CN2CCN(Cc3ccc4c(c3)OCO4)CC2)c(Cl)c1)N1CCOCC1 [3-{4-[2-(4-Benzo[1,3]dioxol-5-ylmethyl-piperazin-1-ylmethyl)-phenylsulfanyl]-3-chloro-phenyl}-1-morpholin-4-yl-propenone] | 360
CC(=O)N1CCN(C(=O)/C=C/c2ccc(Sc3ccc(Cl)cc3Cl)c(Cl)c2)CC1 [1-(4-Acetyl-piperazin-1-yl)-3-[3-chloro-4-(2,4-dichloro-phenylsulfanyl)-phenyl]-propenone] | 240
